Assay [1] has as its system patient. In words: Radiation injury in the nasal cavity, patient case. It is filed as in vivo, human. The procedure:
A patient was diagnosed with paranasal sinus cancer and received radiation therapy. After two weeks treatment, they had inflammation of the nose and sinuses and felt like their nose was blocked or stuffy. The mucus in the nasal cavity and paranasal sinuses became thick and dry.
The patient used a nasal spray comprising Compound B (see Example 7 above) dissolved in water at a concentration of 0.5 mg/mL and then packed into a nasal spray bottle, once every two hours during daytime.

Assay [2] relates to patient. In words: Radiation stomatitis, patient case. It is filed as in vivo, human. Particulars: 0.5 mg/mL solution as mouthwash. The procedure:
A patient was diagnosed with oral cancer and underwent radiation therapy.
After 3 weeks, oral mucositis developed with ulcers on the mucous membrane lining the mouth, throat and esophagus. It was very painful and the patient was not able to eat.
The patient then used Compound B solution (0.5 mg/mL; prepared as described in Example 38 above) as a mouthwash, as frequently as needed.

These results are taken from patent publication US20230331792A1, “NEW MULTI-FUNCTIONAL OLIGOPEPTIDES” (ENLITISA (SHANGHAI) PHARMACEUTICAL CO., LTD., priority 2019, published 2023).

Square brackets hold non-standard residues; d marks the D form. Ends that are not written are not given here. Dopa = N[C@@H](Cc1ccc(O)c(O)c1)C(=O)O; Hyp = O=C(O)[C@@H]1C[C@@H](O)CN1

Take “{[(Ala-Lys-Pro-Ser-Tyr-Hyp-Hyp-Thr-DOPA-Lys)2-Lys]2-Lys}2-Lys (AKPSY[Hyp][Hyp]T[Dopa]KKKK; also: branched lysine dendrimer {[(peptide)2-Lys]2-Lys}2-Lys) [Compound B]”: the “blocked or stuffy nose” value in the assay with patient [1] (nasal spray 0.5 mg/mL once every two hours during daytime, three days later) is “nose became clear and was no longer stuffy”. In addition, the “nasal discomfort during continued radiation therapy” value in the assay on patient [1] (nasal spray 0.5 mg/mL, continuous use) was “nasal discomfort did not worsen”. In addition, in the assay with patient [2], the “course of stomatitis during continued therapy” value is recorded as “stomatitis did not worsen” and the “duration of pain relief” value is on record as “one or two hours”. Moreover, the “pain of oral mucositis” value in the assay on patient [2] (almost immediately after application) is “pain was very much reduced”.
